The results in this text go back to PubChem BioAssay (NCI).

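Briefly, cells in 96-well plates were exposed to five compound concentrations for 48 h, and endpoints were estimated by linear interpolation. TGI denotes the concentration required for complete inhibition of growth.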

Some test systems named below: TK-10 renal; NCI-H23 lung; SK-MEL-28 melanoma; MALME-3M melanoma; M14 melanoma; CCRF-CEM leukemia; SNB-19 CNS; OVCAR-3 ovarian; UACC-257 melanoma; SK-MEL-5 melanoma; NCI-H460 lung; SW-620 colon.
Common to all, as to assay: DTP human tumour cell line panel, 48 h

Usually TGI stands for the concentration at which net growth stops. With `Nc1nc(SCCC/C=C/B(O)O)nc2c1ncn2C1OC(CO)C(O)C1O` (stereo unspecified), the TGI in the test with TK-10 renal, in the test on NCI-H23 lung, in the test on SK-MEL-28 melanoma, in the test on MALME-3M melanoma, in the test with M14 melanoma and in the test with CCRF-CEM leukemia was greater than 243 µM each time. The TGI in the test on SNB-19 CNS, with OVCAR-3 ovarian, in the test with UACC-257 melanoma, with SK-MEL-5 melanoma, in the test with NCI-H460 lung and with SW-620 colon was greater than 243 µM each time.
For `O=[N+]([O-])/C=C/c1cccc(F)c1`, the TGI in the test on TK-10 renal was 14.3 µM; in the test with NCI-H23 lung, 17.9 µM; with SK-MEL-28 melanoma, 5.87 µM; with MALME-3M melanoma it was 32.5 µM; with M14 melanoma, 10.7 µM; with CCRF-CEM leukemia it was 5.5 µM. The TGI in the test on SNB-19 CNS was 29.7 µM; in the test with OVCAR-3 ovarian, 7.38 µM; with UACC-257 melanoma, 15.8 µM; in the test with SK-MEL-5 melanoma, 18.6 µM; with NCI-H460 lung, 30.4 µM; in the test with SW-620 colon, 8.88 µM.
Turning to `C[n+]1ccccc1/C=C/c1ccc2c(c1)OCO2`, the TGI in the test with TK-10 renal, in the test on NCI-H23 lung, in the test on SK-MEL-28 melanoma, in the test on MALME-3M melanoma, in the test with M14 melanoma and in the test with CCRF-CEM leukemia was greater than 10 µM each time. The TGI in the test with SNB-19 CNS, with OVCAR-3 ovarian, with UACC-257 melanoma, in the test on SK-MEL-5 melanoma, in the test on NCI-H460 lung and with SW-620 colon was greater than 10 µM throughout.
Regarding `Nc1nc(Cl)cc(NCCCCO)n1`, the TGI is greater than 100 µM in the test on TK-10 renal; greater than 100 µM in the test with NCI-H23 lung; greater than 100 µM in the test with SK-MEL-28 melanoma; greater than 100 µM in the test with MALME-3M melanoma; greater than 10 µM in the test with M14 melanoma; greater than 100 µM with CCRF-CEM leukemia. Besides, the TGI was greater than 100 µM in the test with SNB-19 CNS; greater than 10 µM in the test on OVCAR-3 ovarian; greater than 100 µM in the test on UACC-257 melanoma; greater than 100 µM in the test on SK-MEL-5 melanoma; greater than 100 µM with NCI-H460 lung; greater than 100 µM in the test with SW-620 colon.
Regarding `CCCNCC(O)/C=C/[Si](C)(C)C` (stereo unspecified) (tested in a mixture with another compound), the TGI in the test with TK-10 renal, in the test with NCI-H23 lung, with SK-MEL-28 melanoma, with MALME-3M melanoma, with M14 melanoma and in the test with CCRF-CEM leukemia was greater than 100 µM throughout. Besides, the TGI with SNB-19 CNS, in the test on OVCAR-3 ovarian, with UACC-257 melanoma, with SK-MEL-5 melanoma, in the test with NCI-H460 lung and in the test with SW-620 colon was greater than 100 µM throughout.
For `Cc1ccccc1N=Nc1ccc(N=Nc2c(O)ccc3cc(S(=O)(=O)O)cc(S(=O)(=O)O)c23)c(C)c1`, the TGI in the test with TK-10 renal, with NCI-H23 lung, in the test on SK-MEL-28 melanoma, in the test on MALME-3M melanoma, in the test on M14 melanoma and in the test with CCRF-CEM leukemia was greater than 100 µM in each case. Besides, the TGI with SNB-19 CNS, in the test with OVCAR-3 ovarian, with UACC-257 melanoma, in the test with SK-MEL-5 melanoma, in the test with NCI-H460 lung and in the test on SW-620 colon was greater than 100 µM throughout.
Consider `Cc1nnc2sc(-c3ccc(N)cc3)nn12`, for which the TGI in the test with TK-10 renal, in the test with NCI-H23 lung, in the test with SK-MEL-28 melanoma, in the test on MALME-3M melanoma, with M14 melanoma and with CCRF-CEM leukemia was greater than 100 µM in each case. The TGI in the test on SNB-19 CNS, with OVCAR-3 ovarian, in the test on UACC-257 melanoma, with SK-MEL-5 melanoma, in the test with NCI-H460 lung and in the test with SW-620 colon was greater than 100 µM each time.
With `Cc1c(Cl)c(S(N)(=O)=O)cc(S(N)(=O)=O)c1NC(=O)c1ccc(Cl)cc1`, the TGI in the test on TK-10 renal, in the test on NCI-H23 lung, with SK-MEL-28 melanoma, in the test with MALME-3M melanoma, with M14 melanoma and with CCRF-CEM leukemia was greater than 100 µM each time. Also, the concentration for total growth inhibition (TGI) with SNB-19 CNS, in the test with OVCAR-3 ovarian, in the test on UACC-257 melanoma, in the test on SK-MEL-5 melanoma, with NCI-H460 lung and in the test on SW-620 colon was greater than 100 µM throughout.
